Our source for the inhibition, viability and IC50 values is ChEMBL document CHEMBL4610094, “Prenylated Phenolic Compounds from the Aerial Parts of Glycyrrhiza uralensis as PTP1B and α-Glucosidase Inhibitors” (J Nat Prod, 2020).

The species named for one data set is Homo sapiens. Description: Inhibition of alpha-Glucosidase (unknown origin) at 10 uM using pNPG as substrate incubated for 30 mins relative to control.
A short description of data set [1]: Cytotoxicity against human insulin resistant HepG2 cells assessed as cell viability at 10 uM by CCK8 assay relative to control. The data set is classed as cell-based. The settings on record: read-out: Activity. (Tetrazolium dyes change colour on reduction, which living cells bring about.)
The target of data set [2] is T1, Tyrosine-protein phosphatase non-receptor type 1 (Homo sapiens) (UniProt P18031).
T1 sequence (whole entry): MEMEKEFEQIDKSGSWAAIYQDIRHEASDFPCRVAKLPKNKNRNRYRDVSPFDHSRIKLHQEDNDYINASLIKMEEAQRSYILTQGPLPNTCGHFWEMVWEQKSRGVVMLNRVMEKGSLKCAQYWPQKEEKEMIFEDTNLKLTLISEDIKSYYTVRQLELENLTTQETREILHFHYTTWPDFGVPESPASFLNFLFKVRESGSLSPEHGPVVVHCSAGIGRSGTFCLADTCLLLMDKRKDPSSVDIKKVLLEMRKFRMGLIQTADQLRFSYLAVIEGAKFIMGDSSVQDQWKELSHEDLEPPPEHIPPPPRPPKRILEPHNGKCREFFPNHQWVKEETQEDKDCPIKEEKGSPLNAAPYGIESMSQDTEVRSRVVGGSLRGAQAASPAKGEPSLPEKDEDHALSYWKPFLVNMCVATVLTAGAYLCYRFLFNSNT
Description: Inhibition of recombinant human PTP1B (1 to 321 residues) expressed in Escherichia coli at 10 uM using p-nitrophenyl phosphate as substrate incubated for 30 mins relative to control.

Data set [3] has as its target T2, Tyrosine-protein phosphatase non-receptor type 1 (Homo sapiens, UniProt P18031).
T2 sequence (P18031 whole entry): T1 sequence (whole entry)
Description: Inhibition of recombinant human PTP1B (1 to 321 residues) expressed in Escherichia coli using p-nitrophenyl phosphate as substrate incubated for 30 mins.

By inhibition is commonly meant the change of the read-out against control, counted positive when it falls. Regarding `CC1(C)C=Cc2cc(/C=C/C(=O)c3ccc(O)cc3O)ccc2O1`, the results for the inhibition (in the data set listed under Homo sapiens; in data set [2]) were more than 40% and more than 60%, respectively. Also, the viability at 10 µM in data set [1] was 80 to 110%.
As to `CC(C)=CCc1cc([C@@H]2CC(=O)c3c(O)cc(O)cc3O2)ccc1O`, the values for the inhibition (in the data set listed under Homo sapiens; in data set [2]) were more than 40% and more than 60%, respectively. In data set [1], the viability at 10 µM is 80 to 110%.
For `COc1ccc([C@@H]2COc3cc(O)ccc3C2)c(O)c1`, the figures for the inhibition (in the data set listed under Homo sapiens; in data set [2]) were more than 40% and more than 60%, respectively. For the same compound, the viability at 10 µM in data set [1] lay within 80 to 110%.
For `COc1cc(O)ccc1/C=C/C(=O)c1ccc(O)cc1` [ECHINATIN], the inhibition in the data set filed under Homo sapiens was more than 40%; in data set [2], more than 60%. In addition, the viability at 10 µM in data set [1] was in the range of 80 to 110%.
Turning to `COc1cc2c(c(OC)c1CC=C(C)C)C[C@H](c1ccc(O)cc1O)CO2` [GLYASPERIN D], the inhibition was more than 40% in the data set listed under Homo sapiens and more than 60% in data set [2]. Further, the viability at 10 µM in data set [1] was 80 to 110%.
On the same counts, the results for `CC1(C)C=Cc2cc(-c3coc4cc(O)cc(O)c4c3=O)ccc2O1` are more than 40%, more than 60% and 80 to 110%.
For `COc1ccc([C@@H]2COc3cc(O)c(CC=C(C)C)cc3C2)c(O)c1`, the inhibition in the data set filed under Homo sapiens is more than 40%; in data set [2] it was more than 60%. The viability at 10 µM in data set [1] was 80 to 110%.
Turning to `CC(C)=CCc1c(O)ccc(C2COc3cc(O)c(CC=C(C)C)c(O)c3C2=O)c1O` (stereo not drawn), the values for the inhibition (in the data set listed under Homo sapiens; in data set [2]) were more than 40% and more than 60%, respectively. In data set [1], the viability at 10 µM lay within 80 to 110%.
Broadly, the IC50 is the concentration that inhibits the measured activity by half. As for `COc1cc2c(c(OC)c1CC=C(C)C)C[C@H](c1ccc(O)c3c1OC(C)(C)C=C3)CO2`, the IC50 in data set [3] came to 7.2 µM.
Take `COc1c(-c2ccc(O)cc2)oc2cc(O)c(CC=C(C)C)c(O)c2c1=O`: the IC50 in data set [3] turned out to be 4.5 µM.
For the compound `CC(C)=CCc1cc([C@@H]2COc3cc(O)c(CC=C(C)C)c(O)c3C2=O)ccc1O`, in the data set filed under Homo sapiens, the inhibition was more than 40%.
With `CC1(C)C=Cc2cc(-c3coc4cc(O)cc(O)c4c3=O)cc(O)c2O1`, the values for the inhibition (in the data set filed under Homo sapiens; in data set [2]) were more than 40% and more than 60%, respectively. Besides, in data set [1], the viability at 10 µM lay in the range of 80 to 110%.
Consider `COc1cc2c(c(OC)c1CC=C(C)C)C[C@H](c1ccc(O)c(CC=C(C)C)c1O)CO2`, for which the results for the inhibition (in the data set listed under Homo sapiens; in data set [2]) were more than 40% and more than 60%, respectively. Further, in data set [1], the viability at 10 µM is 80 to 110%.
As for `COc1ccc(C2COc3c(CC=C(C)C)c(O)cc(O)c3C2=O)c(O)c1` (stereo not drawn), the results for the inhibition (in the data set listed under Homo sapiens; in data set [2]) were more than 40% and more than 60%, respectively. Also, in data set [1], the viability at 10 µM was 80 to 110%.
`CC(C)=CCc1cc(-c2coc3cc(O)cc(O)c3c2=O)ccc1O`: in the data set listed under Homo sapiens, the inhibition was determined as 34.2%.
As to `COc1cc(O)c2c(=O)c(OC)c(-c3ccc(O)cc3)oc2c1` [KUMATAKENIN], the inhibition is more than 40% in the data set filed under Homo sapiens and more than 60% in data set [2]. The viability at 10 µM in data set [1] was 80 to 110%.
Regarding `CC(C)=CCc1c(O)cc2oc(-c3ccc(O)cc3)c(O)c(=O)c2c1O` [LICOFLAVONOL], the figures for the inhibition (in the data set filed under Homo sapiens; in data set [2]) were more than 40% and more than 60%, respectively. In addition, the viability at 10 µM in data set [1] was 80 to 110%.
Consider `CC(C)=CCc1c(O)ccc([C@@]2(O)COc3cc(O)c(CC=C(C)C)c(O)c3C2=O)c1O`, for which the inhibition is more than 40% in the data set filed under Homo sapiens and more than 60% in data set [2]. In addition, the viability at 10 µM in data set [1] fell in the range of 80 to 110%.
On the same counts, the results for `COc1cc2oc(=O)c3c4ccc(O)cc4oc3c2c(OC)c1CC=C(C)C` are more than 40%, more than 60% and 80 to 110%.
On the same counts, the results for `O=c1c(-c2ccc(O)cc2)coc2cc(O)cc(O)c12` [GENISTEIN] are 58.4%, more than 60% and 80 to 110%.
On the same counts, the results for `CC(C)=CCc1c(O)ccc(-c2coc3cc(O)cc(O)c3c2=O)c1O` are 20.1%, more than 60% and 80 to 110%.
In the case of `CC1(C)C=Cc2c(ccc([C@@H]3COc4cc(O)cc(O)c4C3=O)c2O)O1`, the inhibition in the data set listed under Homo sapiens was more than 40%; in data set [2], more than 60%. In addition, the viability at 10 µM in data set [1] is 80 to 110%.
